Test results: publication PMC2919811 (Analytical biochemistry, 2010)
Like-named read-outs stand apart in the source and are kept apart here.

Legend:
OATP1B3 [1] = biological target: T1, OATP1B3 (Homo sapiens, UniProt Q9NPD5); settings: read-out: OATP1B3 Km; literature value; cited from earlier work
T1 sequence (Q9NPD5 1-702): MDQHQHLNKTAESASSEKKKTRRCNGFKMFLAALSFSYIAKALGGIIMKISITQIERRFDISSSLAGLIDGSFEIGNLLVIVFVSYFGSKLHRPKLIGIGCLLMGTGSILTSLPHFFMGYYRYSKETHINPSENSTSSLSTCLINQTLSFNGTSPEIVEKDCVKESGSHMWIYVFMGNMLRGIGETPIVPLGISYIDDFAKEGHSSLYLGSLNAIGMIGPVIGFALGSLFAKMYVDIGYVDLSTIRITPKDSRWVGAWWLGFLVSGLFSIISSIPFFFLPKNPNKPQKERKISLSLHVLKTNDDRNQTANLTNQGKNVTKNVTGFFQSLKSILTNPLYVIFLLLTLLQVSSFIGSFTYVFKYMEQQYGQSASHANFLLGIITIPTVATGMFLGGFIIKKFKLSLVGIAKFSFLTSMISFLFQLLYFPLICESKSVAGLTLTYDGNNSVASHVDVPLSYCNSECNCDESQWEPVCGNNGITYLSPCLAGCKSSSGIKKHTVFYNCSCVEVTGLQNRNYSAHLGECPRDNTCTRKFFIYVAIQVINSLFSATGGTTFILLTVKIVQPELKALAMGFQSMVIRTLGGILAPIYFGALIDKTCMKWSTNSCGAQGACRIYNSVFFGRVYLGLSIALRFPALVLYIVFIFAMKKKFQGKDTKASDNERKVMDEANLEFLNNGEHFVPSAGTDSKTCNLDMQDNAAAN

OATP2B1 [2] = biological target: T2, OATP2B1 (Homo sapiens, UniProt O94956); experiment: Substrate uptake in CHO cells stably expressing OATP2B1; assay type: cell-based; settings: 2 μM substrate, five minute accumulation, CHOvector = 1
T2 sequence (O94956 1-709): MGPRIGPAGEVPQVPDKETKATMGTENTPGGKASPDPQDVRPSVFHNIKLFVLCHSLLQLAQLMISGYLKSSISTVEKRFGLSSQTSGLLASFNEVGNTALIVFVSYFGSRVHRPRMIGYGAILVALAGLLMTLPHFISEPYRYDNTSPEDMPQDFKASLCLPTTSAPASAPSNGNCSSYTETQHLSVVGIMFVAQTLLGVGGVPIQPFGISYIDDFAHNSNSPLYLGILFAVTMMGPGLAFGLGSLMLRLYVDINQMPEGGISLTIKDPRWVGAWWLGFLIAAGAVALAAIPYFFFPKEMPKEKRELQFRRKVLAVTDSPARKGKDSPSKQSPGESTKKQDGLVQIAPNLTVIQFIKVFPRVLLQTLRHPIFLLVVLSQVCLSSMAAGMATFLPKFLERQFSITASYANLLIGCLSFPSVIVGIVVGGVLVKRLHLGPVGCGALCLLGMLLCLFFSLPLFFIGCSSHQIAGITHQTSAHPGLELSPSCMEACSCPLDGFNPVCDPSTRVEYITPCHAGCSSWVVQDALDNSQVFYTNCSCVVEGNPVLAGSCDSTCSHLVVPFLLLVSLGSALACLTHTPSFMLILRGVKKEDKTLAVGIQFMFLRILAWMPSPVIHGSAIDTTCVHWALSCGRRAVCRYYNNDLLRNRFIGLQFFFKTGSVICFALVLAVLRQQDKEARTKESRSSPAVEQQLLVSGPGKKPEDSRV

OATP1B1 [3] = biological target: T3, OATP1B1 (Homo sapiens, UniProt Q9Y6L6)
OATP1B3 [4] = biological target: T1, OATP1B3
OATP1B3 [5] = biological target: T1, OATP1B3; experiment: Substrate uptake and transport kinetics in CHO cells stably expressing OATP1B3; settings: 2 μM substrate, five minute accumulation, CHOvector = 1
OATP1B3 [6] = biological target: T1, OATP1B3; experiment: Cellular accumulation in CHO cells transiently transfected with OATP1B3; settings: 2 μM substrate (figure 2 legend), transiently transfected CHO cells
OATP1B1 [7] = biological target: T3, OATP1B1; settings: read-out: OATP1B1 Km; literature value; cited from earlier work
OATP1B1 [8] = biological target: T3, OATP1B1; experiment: Substrate uptake and transport kinetics in CHO cells stably expressing OATP1B1; settings: 2 μM substrate, five minute accumulation, CHOvector = 1
OATP1B1 [9] = biological target: T3, OATP1B1; settings: 2 μM substrate, transiently transfected CHO cells
OAT3 = biological target: T4, OAT3 (Homo sapiens, UniProt Q8TCC7); assay type: cell-based; settings: 2 μM substrate, transiently transfected CHO cells
T4 sequence (Q8TCC7 1-542): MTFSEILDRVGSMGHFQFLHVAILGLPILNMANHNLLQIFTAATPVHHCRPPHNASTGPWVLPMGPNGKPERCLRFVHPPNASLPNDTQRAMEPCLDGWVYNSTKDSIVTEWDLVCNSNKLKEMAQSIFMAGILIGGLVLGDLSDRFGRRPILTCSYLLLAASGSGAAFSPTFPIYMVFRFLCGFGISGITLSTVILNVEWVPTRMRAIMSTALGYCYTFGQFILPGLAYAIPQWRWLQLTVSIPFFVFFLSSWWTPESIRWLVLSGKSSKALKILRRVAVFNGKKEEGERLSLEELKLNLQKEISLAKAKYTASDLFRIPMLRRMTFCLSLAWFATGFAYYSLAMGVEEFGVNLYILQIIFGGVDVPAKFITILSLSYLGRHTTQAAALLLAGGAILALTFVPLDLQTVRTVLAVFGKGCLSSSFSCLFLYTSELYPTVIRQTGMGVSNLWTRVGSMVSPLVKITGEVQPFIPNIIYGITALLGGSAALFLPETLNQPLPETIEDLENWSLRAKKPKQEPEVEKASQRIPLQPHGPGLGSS

OATP2B1 [10] = biological target: T2, OATP2B1; experiment: Cellular accumulation in CHO cells transiently transfected with OATP2B1; assay type: cell-based; settings: 2 μM substrate, transiently transfected CHO cells
OCT2 = biological target: T5, OCT2 (Homo sapiens, UniProt O15244); experiment: Cellular accumulation in CHO cells transiently transfected with OCT2; assay type: cell-based; settings: 10 μM substrate, transiently transfected CHO cells
T5 sequence (O15244 1-555): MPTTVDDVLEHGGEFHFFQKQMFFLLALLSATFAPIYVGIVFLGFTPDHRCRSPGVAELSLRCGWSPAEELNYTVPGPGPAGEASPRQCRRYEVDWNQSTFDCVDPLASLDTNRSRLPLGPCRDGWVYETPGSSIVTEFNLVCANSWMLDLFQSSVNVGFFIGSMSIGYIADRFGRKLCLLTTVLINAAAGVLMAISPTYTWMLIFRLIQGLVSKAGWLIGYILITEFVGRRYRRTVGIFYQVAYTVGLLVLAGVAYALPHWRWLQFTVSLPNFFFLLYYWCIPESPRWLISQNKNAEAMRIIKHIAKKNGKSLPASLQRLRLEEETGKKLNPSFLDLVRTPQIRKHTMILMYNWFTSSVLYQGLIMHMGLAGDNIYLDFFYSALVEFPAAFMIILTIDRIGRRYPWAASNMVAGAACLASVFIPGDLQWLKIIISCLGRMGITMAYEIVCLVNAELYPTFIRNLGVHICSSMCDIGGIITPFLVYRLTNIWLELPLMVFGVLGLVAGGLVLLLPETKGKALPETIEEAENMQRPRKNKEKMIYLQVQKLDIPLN

OCT1 = biological target: T6, OCT1 (Homo sapiens, UniProt O15245); experiment: Cellular accumulation in CHO cells transiently transfected with OCT1; assay type: cell-based; settings: 10 μM substrate, transiently transfected CHO cells
T6 sequence (O15245 1-554): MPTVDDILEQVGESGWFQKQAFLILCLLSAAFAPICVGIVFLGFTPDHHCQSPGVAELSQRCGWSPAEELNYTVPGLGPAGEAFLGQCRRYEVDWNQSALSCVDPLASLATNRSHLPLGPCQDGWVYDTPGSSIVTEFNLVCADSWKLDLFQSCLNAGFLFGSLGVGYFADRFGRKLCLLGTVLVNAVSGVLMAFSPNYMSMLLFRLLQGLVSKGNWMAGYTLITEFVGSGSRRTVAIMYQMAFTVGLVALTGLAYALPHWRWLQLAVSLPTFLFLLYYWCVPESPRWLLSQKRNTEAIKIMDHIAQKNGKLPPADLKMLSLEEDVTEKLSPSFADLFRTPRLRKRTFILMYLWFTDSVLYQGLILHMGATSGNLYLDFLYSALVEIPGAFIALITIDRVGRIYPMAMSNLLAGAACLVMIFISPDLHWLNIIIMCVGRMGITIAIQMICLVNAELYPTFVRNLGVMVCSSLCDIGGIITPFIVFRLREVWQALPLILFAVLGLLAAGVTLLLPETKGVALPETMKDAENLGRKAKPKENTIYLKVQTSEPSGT

NTCP = biological target: T7, NTCP (Homo sapiens, UniProt Q14973); experiment: Cellular accumulation in CHO cells transiently transfected with NTCP; assay type: cell-based; settings: 2 μM substrate, transiently transfected CHO cells
T7 sequence (Q14973 1-349): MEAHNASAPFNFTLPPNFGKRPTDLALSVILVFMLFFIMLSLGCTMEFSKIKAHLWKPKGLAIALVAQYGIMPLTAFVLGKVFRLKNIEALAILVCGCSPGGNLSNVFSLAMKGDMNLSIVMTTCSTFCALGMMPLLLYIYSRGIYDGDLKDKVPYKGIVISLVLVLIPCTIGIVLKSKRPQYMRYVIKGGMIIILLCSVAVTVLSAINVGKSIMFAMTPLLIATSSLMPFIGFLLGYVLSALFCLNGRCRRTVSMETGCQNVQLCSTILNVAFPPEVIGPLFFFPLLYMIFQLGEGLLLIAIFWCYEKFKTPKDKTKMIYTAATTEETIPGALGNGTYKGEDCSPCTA

[11] = read-out: OATP1B1 IC50 value, inhibition of OATP1B1-mediated transport of […] 8-FcA, 10 min, mean ± standard error, two experiments
[12] = read-out: OATP1B3 IC50 value, inhibition of OATP1B3-mediated transport of 1.25 μM 8-FcA, 10 min, mean ± standard error, two experiments

T3 sequence (Q9Y6L6 whole entry): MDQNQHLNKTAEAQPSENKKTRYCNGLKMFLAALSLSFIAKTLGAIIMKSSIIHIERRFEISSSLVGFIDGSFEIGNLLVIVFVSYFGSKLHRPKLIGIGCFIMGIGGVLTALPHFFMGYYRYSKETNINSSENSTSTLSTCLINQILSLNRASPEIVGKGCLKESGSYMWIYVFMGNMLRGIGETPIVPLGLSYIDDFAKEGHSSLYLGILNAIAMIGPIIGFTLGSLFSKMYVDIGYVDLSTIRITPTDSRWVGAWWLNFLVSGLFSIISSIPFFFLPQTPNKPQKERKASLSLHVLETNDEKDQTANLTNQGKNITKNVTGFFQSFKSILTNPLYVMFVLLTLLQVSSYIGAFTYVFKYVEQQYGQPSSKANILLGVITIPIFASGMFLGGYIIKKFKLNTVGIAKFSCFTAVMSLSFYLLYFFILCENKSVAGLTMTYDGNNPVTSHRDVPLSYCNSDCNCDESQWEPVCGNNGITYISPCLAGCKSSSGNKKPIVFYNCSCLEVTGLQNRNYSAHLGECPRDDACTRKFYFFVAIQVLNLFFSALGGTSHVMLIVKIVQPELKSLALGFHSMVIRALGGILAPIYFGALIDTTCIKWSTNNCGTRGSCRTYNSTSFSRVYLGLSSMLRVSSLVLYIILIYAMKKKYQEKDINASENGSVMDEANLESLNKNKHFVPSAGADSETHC

IC50 (OATP1B3 [4]) [nM]	SMILES	Km (OATP1B3 [1]) [µM]	IC50 (OATP1B1 [3]; [11]) [nM]	IC50 (OATP1B3 [4]; [12]) [nM]	Km (OATP1B1 [7]) [µM]	other results
	O=C1OC(c2ccc(O)c(S(=O)(=O)O)c2)(c2ccc(O)c(S(=O)(=O)O)c2)c2c(Br)c(Br)c(Br)c(Br)c21 [bromosulfophthalein]	0.4	180 ± 20	510 ± 20	0.3	cellular accumulation relative to control, CHOOATP2B1 (OATP2B1 [2]): 6.6 fold; cellular accumulation relative to control, CHOOATP1B3 (OATP1B3 [5]): 13.8 fold; increase in activity versus vector control, OATP1B3 (OATP1B3 [6]): 1.26 fold
	C[C@]12CC[C@@H]3c4ccc(O)cc4CC[C@H]3[C@@H]1CC[C@@H]2O[C@@H]1O[C@H](C(=O)O)[C@@H](O)[C@H](O)[C@H]1O [estradiol-17β-d-glucuronide]	15.8	4880 ± 870	23500 ± 1590	5.4	
	C[C@]12CC[C@@H]3c4ccc(OS(=O)(=O)O)cc4CC[C@H]3[C@@H]1CCC2=O [estrone-3-sulfate]	58	53 ± 5	20100 ± 1000		cellular accumulation relative to control, CHOOATP1B1 (OATP1B1 [8]): 36.1 fold; increase in activity compared to vector control, OATP1B1 (OATP1B1 [9]): 3.1 fold; cellular accumulation relative to control, CHOOATP1B3 (OATP1B3 [5]): 4.1 fold; increase in activity compared to vector control, OAT3 (OAT3): 3.8 fold; increase in activity compared to vector control, OATP2B1 (OATP2B1 [10]): 12.5 fold
2690 ± 120	COc1ccc(Cl)cc1C(=O)NCCc1ccc(S(=O)(=O)NC(=O)NC2CCCCC2)cc1 [glibenclamide]					
	CN(C)C(=N)N=C(N)N [metformin]					mean increase in transport over vector control, OCT2 (OCT2): 24.5 fold; mean increase in transport over vector control, OCT1 (OCT1): 2.4 fold
650 ± 20	CO[C@H]1/C=C/O[C@@]2(C)Oc3c(C)c(O)c4c(O)c(c(/C=N/N5CCN(C)CC5)c(O)c4c3C2=O)NC(=O)/C(C)=C\C=C\[C@H](C)[C@H](O)[C@@H](C)[C@@H](O)[C@@H](C)[C@H](OC(C)=O)[C@@H]1C [rifampicin]				13	IC50 (OATP1B1 [3]): 990 ± 70 nM
	C[C@H](CCC(=O)NCCS(=O)(=O)O)[C@H]1CC[C@H]2[C@@H]3[C@H](O)C[C@@H]4C[C@H](O)CC[C@]4(C)[C@H]3C[C@H](O)[C@]12C [taurocholate]					increase in transport compared to vector control, NTCP (NTCP): 168.9 fold

SMILES	IC50 (OATP1B3 [4]) [nM]	Km (OATP1B3 [1]) [µM]	IC50 (OATP1B1 [3]; [11]) [nM]	IC50 (OATP1B3 [4]; [12]) [nM]	Km (OATP1B1 [7]) [µM]	other results
NC(Cc1cc(I)c(Oc2cc(I)c(O)c(I)c2)c(I)c1)C(=O)O (centres unmarked) [thyroxine]	2130 ± 170				3	IC50 (OATP1B1 [3]): 3850 ± 880 nM
